Measurements from patent publication US10670605B2, “Cysteine reactive probes and uses thereof” (The Scripps Research Institute, priority 2015, dated 2020).
Blank lines part the entries; values can stand above or below the compound they belong to.

Assays:
Format in all cases: cell-based
WAPAL C160 (Q7Z5K2) = WAPAL C160 (Q7Z5K2) (Homo sapiens, UniProt Q7Z5K2); assay: Competitive isoTOP-ABPP in situ; details: fragment 2 at 200 μM, MDA-MB-231 cells
USP16 C205 (Q9Y5T5) = USP16 C205 (Q9Y5T5) (Homo sapiens, UniProt Q9Y5T5); assay: Competitive isoTOP-ABPP in situ; details: MDA-MB-231 cells
USP16 C205 (Q9Y5T5), sequence (Q9Y5T5 whole entry, the tested form may be a part): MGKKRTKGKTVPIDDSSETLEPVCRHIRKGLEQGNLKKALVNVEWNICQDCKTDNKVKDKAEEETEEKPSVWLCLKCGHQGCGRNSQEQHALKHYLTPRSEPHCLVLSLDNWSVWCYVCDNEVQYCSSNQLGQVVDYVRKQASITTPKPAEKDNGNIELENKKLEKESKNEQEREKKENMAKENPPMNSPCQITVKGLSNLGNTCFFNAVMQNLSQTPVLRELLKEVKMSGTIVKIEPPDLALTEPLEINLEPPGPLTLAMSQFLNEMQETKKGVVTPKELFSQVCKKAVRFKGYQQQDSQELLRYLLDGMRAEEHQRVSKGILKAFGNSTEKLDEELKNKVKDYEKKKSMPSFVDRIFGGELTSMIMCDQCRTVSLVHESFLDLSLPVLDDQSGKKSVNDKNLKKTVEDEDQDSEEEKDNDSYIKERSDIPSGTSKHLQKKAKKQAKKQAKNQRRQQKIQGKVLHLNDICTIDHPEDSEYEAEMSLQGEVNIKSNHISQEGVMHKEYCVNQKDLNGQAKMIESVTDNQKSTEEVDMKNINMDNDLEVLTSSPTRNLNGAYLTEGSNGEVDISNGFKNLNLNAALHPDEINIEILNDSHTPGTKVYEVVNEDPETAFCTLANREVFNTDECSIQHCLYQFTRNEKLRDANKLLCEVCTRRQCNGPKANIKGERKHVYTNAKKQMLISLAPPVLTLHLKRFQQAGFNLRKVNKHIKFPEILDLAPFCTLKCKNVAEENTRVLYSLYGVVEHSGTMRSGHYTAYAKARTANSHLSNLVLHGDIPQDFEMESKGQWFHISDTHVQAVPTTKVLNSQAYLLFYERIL

[1] = molecular target: cysteines in MDA-MB-231 and Ramos cells (Homo sapiens, UniProt Q9NZB2); assay: Competitive isoTOP-ABPP in situ (fragment-treated cells); details: 200 μM, insitu, 231
cysteines in MDA-MB-231 and Ramos cells (Homo sapiens, UniProt Q9NZB2), sequence (Q9NZB2 whole entry, the tested form may be a part): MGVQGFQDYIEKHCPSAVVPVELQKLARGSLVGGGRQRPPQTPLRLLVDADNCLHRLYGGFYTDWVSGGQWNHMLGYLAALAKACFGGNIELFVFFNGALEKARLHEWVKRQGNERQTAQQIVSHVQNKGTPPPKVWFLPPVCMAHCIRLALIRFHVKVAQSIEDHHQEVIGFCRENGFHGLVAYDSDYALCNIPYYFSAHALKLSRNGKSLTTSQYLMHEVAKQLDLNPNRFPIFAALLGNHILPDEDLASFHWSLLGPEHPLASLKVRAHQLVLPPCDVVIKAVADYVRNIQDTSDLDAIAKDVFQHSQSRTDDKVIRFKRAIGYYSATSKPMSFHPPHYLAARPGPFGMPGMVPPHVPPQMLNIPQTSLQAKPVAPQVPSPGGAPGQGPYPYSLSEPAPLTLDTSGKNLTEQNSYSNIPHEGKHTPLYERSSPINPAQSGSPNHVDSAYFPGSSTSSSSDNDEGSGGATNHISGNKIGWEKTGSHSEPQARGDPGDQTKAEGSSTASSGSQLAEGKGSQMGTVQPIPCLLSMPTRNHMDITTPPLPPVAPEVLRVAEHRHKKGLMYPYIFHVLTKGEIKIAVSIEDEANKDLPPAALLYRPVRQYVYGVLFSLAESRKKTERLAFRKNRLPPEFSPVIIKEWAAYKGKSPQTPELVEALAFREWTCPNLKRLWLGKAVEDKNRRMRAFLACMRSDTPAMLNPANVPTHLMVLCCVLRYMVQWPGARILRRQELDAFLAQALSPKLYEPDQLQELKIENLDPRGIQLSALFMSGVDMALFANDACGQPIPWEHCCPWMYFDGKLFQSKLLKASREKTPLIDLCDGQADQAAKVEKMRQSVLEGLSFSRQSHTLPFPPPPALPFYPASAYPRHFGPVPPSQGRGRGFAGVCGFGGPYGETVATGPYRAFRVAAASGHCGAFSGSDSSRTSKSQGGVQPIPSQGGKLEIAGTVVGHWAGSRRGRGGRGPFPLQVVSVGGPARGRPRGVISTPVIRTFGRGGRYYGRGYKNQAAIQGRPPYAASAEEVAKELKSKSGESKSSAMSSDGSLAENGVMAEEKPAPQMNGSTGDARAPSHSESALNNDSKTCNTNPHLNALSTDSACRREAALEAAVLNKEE

[2] = molecular target: T1, cysteines in MDA-MB-231 and Ramos cells (Homo sapiens, UniProt P42695); assay: as above; details: 200 μM, insitu
T1 sequence (P42695 1-1498): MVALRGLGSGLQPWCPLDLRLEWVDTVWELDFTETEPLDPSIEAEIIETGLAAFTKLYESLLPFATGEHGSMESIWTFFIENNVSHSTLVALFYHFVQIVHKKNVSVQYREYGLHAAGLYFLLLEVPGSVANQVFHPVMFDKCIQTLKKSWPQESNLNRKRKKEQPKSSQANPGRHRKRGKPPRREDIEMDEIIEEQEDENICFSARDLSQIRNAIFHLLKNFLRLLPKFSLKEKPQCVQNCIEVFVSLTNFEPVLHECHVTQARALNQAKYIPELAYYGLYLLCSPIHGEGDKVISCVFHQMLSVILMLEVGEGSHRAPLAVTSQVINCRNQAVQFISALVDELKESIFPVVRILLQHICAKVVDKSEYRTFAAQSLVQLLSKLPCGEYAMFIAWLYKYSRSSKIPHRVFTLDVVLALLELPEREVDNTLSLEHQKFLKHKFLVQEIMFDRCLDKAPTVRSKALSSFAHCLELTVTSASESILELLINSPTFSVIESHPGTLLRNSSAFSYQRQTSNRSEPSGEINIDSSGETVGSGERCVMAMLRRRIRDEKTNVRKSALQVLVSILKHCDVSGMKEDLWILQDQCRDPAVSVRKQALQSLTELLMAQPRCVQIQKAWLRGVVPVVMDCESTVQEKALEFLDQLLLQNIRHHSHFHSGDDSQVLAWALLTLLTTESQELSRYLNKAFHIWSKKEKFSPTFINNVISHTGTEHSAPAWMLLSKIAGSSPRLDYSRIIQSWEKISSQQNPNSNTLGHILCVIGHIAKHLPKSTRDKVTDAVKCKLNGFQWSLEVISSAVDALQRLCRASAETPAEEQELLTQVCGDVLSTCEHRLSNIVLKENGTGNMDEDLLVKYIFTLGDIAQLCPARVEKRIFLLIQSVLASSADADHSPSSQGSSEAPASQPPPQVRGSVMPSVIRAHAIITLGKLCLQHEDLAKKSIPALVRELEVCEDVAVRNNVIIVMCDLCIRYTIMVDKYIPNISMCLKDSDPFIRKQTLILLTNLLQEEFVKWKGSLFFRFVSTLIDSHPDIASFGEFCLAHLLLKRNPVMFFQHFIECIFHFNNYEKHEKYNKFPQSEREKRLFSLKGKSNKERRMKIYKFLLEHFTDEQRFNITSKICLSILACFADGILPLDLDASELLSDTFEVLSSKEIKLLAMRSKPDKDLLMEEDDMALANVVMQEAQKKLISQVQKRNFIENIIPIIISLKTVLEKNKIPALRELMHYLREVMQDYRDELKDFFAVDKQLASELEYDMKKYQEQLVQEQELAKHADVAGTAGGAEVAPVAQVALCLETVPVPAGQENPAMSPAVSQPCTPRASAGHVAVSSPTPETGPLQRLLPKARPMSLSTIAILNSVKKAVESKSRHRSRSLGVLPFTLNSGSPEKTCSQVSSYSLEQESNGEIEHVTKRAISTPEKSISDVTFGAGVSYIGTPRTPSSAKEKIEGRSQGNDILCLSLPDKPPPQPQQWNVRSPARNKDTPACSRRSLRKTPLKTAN

[3] = molecular target: cysteines in MDA-MB-231 and Ramos cells (Homo sapiens, UniProt Q13613); assay: as above; details: 200 μM, insitu
[4] = molecular target: cysteines in MDA-MB-231 and Ramos cells (Homo sapiens, UniProt P41226); assay: as above; details: 200 μM, insitu, 231
cysteines in MDA-MB-231 and Ramos cells (Homo sapiens, UniProt P41226), sequence (P41226 whole entry): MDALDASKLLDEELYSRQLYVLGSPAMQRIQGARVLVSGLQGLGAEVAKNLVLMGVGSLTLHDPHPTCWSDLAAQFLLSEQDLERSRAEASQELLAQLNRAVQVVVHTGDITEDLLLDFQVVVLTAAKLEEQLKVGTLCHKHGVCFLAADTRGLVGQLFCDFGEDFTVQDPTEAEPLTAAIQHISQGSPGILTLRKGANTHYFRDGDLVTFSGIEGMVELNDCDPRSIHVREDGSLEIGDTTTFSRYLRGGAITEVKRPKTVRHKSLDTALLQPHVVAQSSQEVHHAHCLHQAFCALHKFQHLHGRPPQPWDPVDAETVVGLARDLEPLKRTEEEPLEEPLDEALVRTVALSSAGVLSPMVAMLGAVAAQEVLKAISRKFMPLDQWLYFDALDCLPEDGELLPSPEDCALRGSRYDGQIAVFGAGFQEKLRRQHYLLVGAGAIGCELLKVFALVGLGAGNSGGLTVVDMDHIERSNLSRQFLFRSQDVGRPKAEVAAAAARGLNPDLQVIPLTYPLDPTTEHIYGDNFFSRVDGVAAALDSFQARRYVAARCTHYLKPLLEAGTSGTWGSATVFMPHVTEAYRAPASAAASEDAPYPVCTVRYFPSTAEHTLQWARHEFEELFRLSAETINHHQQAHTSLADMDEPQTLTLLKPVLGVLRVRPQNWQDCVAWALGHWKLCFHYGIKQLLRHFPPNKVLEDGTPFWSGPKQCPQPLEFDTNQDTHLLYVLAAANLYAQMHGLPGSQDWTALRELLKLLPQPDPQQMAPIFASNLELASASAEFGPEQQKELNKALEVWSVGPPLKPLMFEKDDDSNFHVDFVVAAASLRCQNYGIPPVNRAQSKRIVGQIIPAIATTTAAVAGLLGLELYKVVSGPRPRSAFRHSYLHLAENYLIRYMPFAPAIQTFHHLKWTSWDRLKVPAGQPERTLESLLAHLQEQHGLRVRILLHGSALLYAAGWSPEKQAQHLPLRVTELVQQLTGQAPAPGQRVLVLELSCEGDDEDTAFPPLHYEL

[5] = molecular target: cysteines in MDA-MB-231 and Ramos cells (Homo sapiens, UniProt Q99986); assay: as above
cysteines in MDA-MB-231 and Ramos cells (Homo sapiens, UniProt Q99986), sequence (Q99986 whole entry): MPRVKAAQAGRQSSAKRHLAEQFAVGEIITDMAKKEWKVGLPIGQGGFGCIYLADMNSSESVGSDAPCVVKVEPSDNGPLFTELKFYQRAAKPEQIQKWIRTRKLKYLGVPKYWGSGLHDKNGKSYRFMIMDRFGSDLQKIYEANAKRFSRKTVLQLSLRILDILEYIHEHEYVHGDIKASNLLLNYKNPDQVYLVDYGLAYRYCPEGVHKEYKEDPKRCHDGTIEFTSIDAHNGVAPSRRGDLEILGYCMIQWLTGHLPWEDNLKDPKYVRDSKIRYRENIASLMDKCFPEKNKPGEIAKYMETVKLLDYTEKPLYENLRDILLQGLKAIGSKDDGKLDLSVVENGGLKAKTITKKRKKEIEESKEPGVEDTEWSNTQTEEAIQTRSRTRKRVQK

[6] = molecular target: cysteines in MDA-MB-231 and Ramos cells (Homo sapiens, UniProt Q9Y2S7); assay: as above; details: 200 μM, insitu, 231
cysteines in MDA-MB-231 and Ramos cells (Homo sapiens, UniProt Q9Y2S7), sequence (Q9Y2S7 52-368): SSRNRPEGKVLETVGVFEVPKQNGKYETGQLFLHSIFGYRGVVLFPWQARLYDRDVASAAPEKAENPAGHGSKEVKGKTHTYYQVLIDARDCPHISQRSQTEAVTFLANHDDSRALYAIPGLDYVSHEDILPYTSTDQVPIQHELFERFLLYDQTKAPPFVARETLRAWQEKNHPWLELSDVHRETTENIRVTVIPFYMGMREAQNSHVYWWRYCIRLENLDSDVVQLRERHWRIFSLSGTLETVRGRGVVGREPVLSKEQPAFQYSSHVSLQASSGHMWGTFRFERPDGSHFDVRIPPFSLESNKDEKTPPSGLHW

[7] = molecular target: T2, cysteines in MDA-MB-231 and Ramos cells (Homo sapiens, UniProt Q8NEC7); assay: as above; details: 200 μM, insitu
T2 sequence (Q8NEC7 1-633): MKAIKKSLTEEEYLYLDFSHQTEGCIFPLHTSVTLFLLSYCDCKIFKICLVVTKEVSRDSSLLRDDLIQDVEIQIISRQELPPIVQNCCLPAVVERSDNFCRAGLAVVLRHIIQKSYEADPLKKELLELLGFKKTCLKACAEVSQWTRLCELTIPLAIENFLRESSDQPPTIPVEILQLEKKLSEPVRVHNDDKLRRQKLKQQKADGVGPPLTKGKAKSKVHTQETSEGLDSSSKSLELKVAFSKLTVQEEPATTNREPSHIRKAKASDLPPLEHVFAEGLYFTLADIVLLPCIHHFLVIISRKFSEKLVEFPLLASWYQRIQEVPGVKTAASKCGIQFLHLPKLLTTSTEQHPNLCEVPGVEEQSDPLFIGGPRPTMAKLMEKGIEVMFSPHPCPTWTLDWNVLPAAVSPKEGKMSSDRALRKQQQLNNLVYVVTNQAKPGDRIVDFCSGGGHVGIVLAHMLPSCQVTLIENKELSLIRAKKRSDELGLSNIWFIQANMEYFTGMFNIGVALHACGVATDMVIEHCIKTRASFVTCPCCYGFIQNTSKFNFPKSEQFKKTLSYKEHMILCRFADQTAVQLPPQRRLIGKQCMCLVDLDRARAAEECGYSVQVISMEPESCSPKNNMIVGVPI

[8] = molecular target: cysteines in MDA-MB-231 and Ramos cells (Homo sapiens, UniProt Q9P2X3); assay: as above; details: 200 μM, insitu, 231
cysteines in MDA-MB-231 and Ramos cells (Homo sapiens, UniProt Q9P2X3), sequence (Q9P2X3 whole entry): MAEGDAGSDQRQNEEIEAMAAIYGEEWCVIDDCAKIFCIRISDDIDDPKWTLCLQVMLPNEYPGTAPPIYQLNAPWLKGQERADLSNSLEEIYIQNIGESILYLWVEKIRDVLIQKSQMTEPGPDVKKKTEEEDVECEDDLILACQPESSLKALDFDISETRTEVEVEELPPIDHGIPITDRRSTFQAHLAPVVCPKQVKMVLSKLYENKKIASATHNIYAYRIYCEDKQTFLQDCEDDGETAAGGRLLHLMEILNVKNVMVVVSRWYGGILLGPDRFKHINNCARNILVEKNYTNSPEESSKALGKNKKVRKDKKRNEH

[9] = molecular target: cysteines in MDA-MB-231 and Ramos cells (Homo sapiens, UniProt Q6PJG6); assay: as above; details: 200 μM, insitu, ramos
cysteines in MDA-MB-231 and Ramos cells (Homo sapiens, UniProt Q6PJG6), sequence (Q6PJG6 whole entry): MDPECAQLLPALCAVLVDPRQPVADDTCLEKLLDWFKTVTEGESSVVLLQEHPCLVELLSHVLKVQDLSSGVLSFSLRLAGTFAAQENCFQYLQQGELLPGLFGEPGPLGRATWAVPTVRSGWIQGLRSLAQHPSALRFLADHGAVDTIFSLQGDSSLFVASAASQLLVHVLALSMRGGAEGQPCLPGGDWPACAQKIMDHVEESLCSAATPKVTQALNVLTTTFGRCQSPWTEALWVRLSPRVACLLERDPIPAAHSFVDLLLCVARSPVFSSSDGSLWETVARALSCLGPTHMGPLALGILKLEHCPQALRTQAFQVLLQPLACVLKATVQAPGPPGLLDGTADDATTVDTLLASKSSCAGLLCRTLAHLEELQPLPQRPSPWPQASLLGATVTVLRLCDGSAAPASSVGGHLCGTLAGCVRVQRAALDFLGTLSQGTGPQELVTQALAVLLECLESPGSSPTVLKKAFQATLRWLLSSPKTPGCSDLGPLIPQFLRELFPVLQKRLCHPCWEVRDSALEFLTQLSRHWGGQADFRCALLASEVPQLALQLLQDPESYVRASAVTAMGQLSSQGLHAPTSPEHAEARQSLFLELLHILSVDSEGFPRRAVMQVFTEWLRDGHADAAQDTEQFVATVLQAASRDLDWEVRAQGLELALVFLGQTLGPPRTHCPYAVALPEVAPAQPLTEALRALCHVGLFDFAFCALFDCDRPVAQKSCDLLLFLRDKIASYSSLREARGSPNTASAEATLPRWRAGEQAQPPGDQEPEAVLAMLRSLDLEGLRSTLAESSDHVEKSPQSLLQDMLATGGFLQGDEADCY

[10] = molecular target: cysteines in MDA-MB-231 and Ramos cells (Homo sapiens, UniProt A2A288); assay: as above; details: 200 μM, insitu, ramos

isoTOP-ABPP reactivity profile (ratio) 2_200 μM_in-situ_231 (WAPAL C160 (Q7Z5K2)): 20.0 | isoTOP-ABPP reactivity profile (ratio) 2_200 μM_in-situ_231 (USP16 C205 (Q9Y5T5); fragment 2 at 200 μM): 7.9
SMILES: COc1ccc2c(c1)CCCN2C(=O)CCl [compound 2]

isoTOP-ABPP ratio, cysteine Q9NZB2_C531 [1]: 20.0
SMILES: O=C(CCl)NC(=O)NC12CC3CC(CC(C3)C1)C2 [compound 12]

isoTOP-ABPP ratio, cysteine Q9NZB2_C531 [1]: 1.6 | isoTOP-ABPP ratio, cysteine P42695_C541 [2]; 231: 2.3 | isoTOP-ABPP ratio, cysteine Q13613_C117 [3]; 231: 0.9 | isoTOP-ABPP ratio, cysteine P41226_C599 [4]: 1.0
SMILES: O=C(CCl)NC12CC3CC(CC(C3)C1)C2 [compound 21]

isoTOP-ABPP ratio, cysteine P42695_C541 [2]; 231: 20.0 | isoTOP-ABPP ratio, cysteine P42695_C541 ([2]; ramos): 6.5 | isoTOP-ABPP ratio, cysteine Q99986_C50 ([5]; 200 μM, insitu, ramos): 0 .7 | isoTOP-ABPP ratio, cysteine P41226_C599 [4]: 8.0 | isoTOP-ABPP ratio, cysteine Q9Y2S7_C143 [6]: 13.9
SMILES: O=C(CCl)N1CCN(S(=O)(=O)c2ccccc2F)CC1 [compound 10]

isoTOP-ABPP ratio Q9Y2S7_C143 [6]: 1.2
SMILES: Cc1ccc(C=C(C#N)C(=O)NCCN2CCOCC2)cc1 [compound 41]

reactivity profile of liganded cysteine Q99986_C50 with fragment electrophile (isoTOP-ABPP ratio) ([5]; cysteine Q99986_C50, fragment 200 μM, in situ, 231 (MDA-MB-231) cells): 4.1 | isoTOP-ABPP ratio Q8NEC7_C140 [7]; 231: 20.0 | isoTOP-ABPP ratio Q9P2X3_C195 [8]: 20.0
SMILES: CC1CCc2ccccc2N1C(=O)CCl (stereo not shown) [compound 45]

isoTOP-ABPP ratio Q6PJG6_C673 [9]: 20.0 | isoTOP-ABPP ratio Q9P2X3_C195 [8]: 0.5 | isoTOP-ABPP ratio A2A288_C367 [10]: 1.9
SMILES: C=CC(=O)N(Cc1cccnc1)c1cc(C(F)(F)F)cc(C(F)(F)F)c1 [compound 31]

isoTOP-ABPP ratio, cysteine Q8NEC7_C140 [7]; 231: 1.8 | isoTOP-ABPP ratio, cysteine Q8NEC7_C140 ([7]; ramos): 20.0
SMILES: O=C(CCl)NCCc1c[nH]c2ccccc12 [compound 13]

isoTOP-ABPP reactivity profile (ratio) 4_100 μM_in-situ_231 (USP16 C205 (Q9Y5T5); fragment 4 at 100 μM): 20.0
SMILES: COc1ccc(C2CC(c3cccs3)=NN2C(=O)CCl)cc1 (stereo not shown) [compound 4]

isoTOP-ABPP ratio Q6PJG6_C673 [9]: 4.6 | isoTOP-ABPP ratio Q13613_C117 ([3]; ramos): 1.5 | isoTOP-ABPP ratio A2A288_C367 [10]: 1.3
SMILES: O=C(CCl)N1CCN(CC(=O)N2CCOCC2)CC1 [compound 29]
